How the values were obtained:
A549 = test: Cell proliferation inhibition, carcinomas other than TNBC; format: cell-based; details: Homo sapiens
Experimental: To check an ability to inhibit the growth of (MDA-MB-231) cells in two triple-negative breast cancer cell lines, a test was performed, as follows. Cells were seeded in 180 μL of a culture broth at a density of 2,000 to 3,000 cells/well in a white clear bottom 96-well plate (Corning) according to the growth ability of each cell, and then cultured for 24 hours under conditions of 5% CO2 and 37° C. Thereafter, the compound was prepared by diluting a 10 mM stock solution three-fold with 100% DMSO at a total of 12 concentrations so that a peak concentration of the compound was in a range of 10 mM to 0.05 μM, and the diluted compound was then diluted in each cell culture medium so that a final concentration of the compound was in a range of 100 μM to 0.5 nM. 20 μL of a diluted solution diluted with a medium was added to the cell solution in which cells were seeded in the 96-well plate on the previous day so that a final concentration of the diluted solution was in a range of 10 μM to 0.05 nM. Each of the cells was cultured for 5 days. To check cell viability, a mixture provided in a CellTiter-Glo® Luminescent Cell Viability Assay Kit (Promega) was added to each of the cultured cell media, and cultured for another 10 minutes under a condition of 37° C. Then, a degree of luminescence (fluorescence) was measured. A degree of inhibition of the cell growth according to the treatment concentration of each of the compounds was calculated based on the fluorescence of the solvent control cells which were not treated with the compound. In this case, the concentration of each of the compounds inhibiting 50% of the cell growth was determined to be a GI50 (nM) value, and calculated using Prism (Version 7.01; GraphPad) software.
Next, the activities of the Example compounds against various types of carcinomas other than the TNBC were evaluated in a similar manner as described above. In the following table, the following active value range (GI50 (nM)) was used to evaluate cell proliferation inhibitory activity.

AAK1 = molecular target: T1, AAK1 (Homo sapiens, UniProt Q2M2I8); test: ScanMAX Kinase panel (DiscoverX); format: binding; details: read-out: % Cont @ 1 μM
T1 construct: purchased DiscoverX Corp. ScanMAX Kinase panel
Experimental: (§1) Further, to evaluate the inhibitory activity of the compound according to the present invention against more enzymes, an experiment was performed as follows. Specifically, the enzyme (kinase) selectivity of the compound of Example 64 selected from the Example compounds of the present invention was measured by commissioning DiscoverX Corp., and an experiment was performed using a panel for ScanMAX™ Kinase analysis. In this case, the concentration of a drug treated with the enzyme was set at 1 μM in DMSO, and the percent control (% control) were defined in the same manner as in the following Expression 1.
(§2) (Example compound−Positive control)/(Negative control−Positive control)×100 [Expression 1]
(§3) Wherein the positive control represents a compound having a percent control of 0%, and the negative control represents a compound having a percent control of 100% in DMSO. For the enzyme selectivity of the present invention, the compound was also judged to have activity against the corresponding enzyme when the percent control for each of the enzymes was <35% (i.e., less than 35%).

CAMK2D = molecular target: T2, CAMK2D (Homo sapiens, UniProt Q13557); test: ScanMAX Kinase panel (DiscoverX); format: binding; details: read-out: % Cont @ 1 μM
T2 construct: purchased DiscoverX Corp. ScanMAX Kinase panel
T2 sequence (Q13557 whole entry): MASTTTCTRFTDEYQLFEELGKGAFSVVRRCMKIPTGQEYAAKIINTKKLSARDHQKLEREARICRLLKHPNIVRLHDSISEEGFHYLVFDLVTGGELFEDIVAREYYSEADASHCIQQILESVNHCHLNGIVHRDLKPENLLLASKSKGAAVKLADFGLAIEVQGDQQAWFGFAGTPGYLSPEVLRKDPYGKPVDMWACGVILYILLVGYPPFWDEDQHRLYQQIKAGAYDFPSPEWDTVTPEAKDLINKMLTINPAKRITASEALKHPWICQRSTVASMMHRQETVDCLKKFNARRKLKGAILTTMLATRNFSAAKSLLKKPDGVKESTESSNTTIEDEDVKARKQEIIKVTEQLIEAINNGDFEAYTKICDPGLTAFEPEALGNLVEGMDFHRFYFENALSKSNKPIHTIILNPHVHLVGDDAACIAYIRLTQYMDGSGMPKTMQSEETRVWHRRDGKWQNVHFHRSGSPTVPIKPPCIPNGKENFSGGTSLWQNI
Experimental: as §1, §2, §3

CAMKK1 = molecular target: T3, CAMKK1 (Homo sapiens, UniProt Q8N5S9); test: ScanMAX Kinase panel (DiscoverX); format: binding; details: read-out: % Cont @ 1 μM
T3 construct: purchased DiscoverX Corp. (ScanMAX Kinase panel, commissioned)
T3 sequence (Q8N5S9 whole entry): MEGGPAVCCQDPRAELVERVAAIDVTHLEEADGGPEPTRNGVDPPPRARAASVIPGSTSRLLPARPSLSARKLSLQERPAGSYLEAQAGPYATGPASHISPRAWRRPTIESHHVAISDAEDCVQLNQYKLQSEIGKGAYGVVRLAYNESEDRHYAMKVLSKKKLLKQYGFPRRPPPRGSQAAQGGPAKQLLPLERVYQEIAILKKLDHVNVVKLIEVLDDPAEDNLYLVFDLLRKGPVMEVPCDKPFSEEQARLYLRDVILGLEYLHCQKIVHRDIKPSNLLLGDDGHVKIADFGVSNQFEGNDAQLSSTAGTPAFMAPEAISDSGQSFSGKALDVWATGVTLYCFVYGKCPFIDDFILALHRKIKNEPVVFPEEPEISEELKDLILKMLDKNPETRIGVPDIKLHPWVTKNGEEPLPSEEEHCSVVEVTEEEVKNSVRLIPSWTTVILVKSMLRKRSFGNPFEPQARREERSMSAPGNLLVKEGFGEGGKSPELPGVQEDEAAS
Experimental: as §1, §2, §3

CAMKK2 = molecular target: T4, CAMKK2 (Homo sapiens, UniProt Q96RR4); test: ScanMAX Kinase panel (DiscoverX); format: binding; details: read-out: % Cont @ 1 μM
T4 construct: purchased DiscoverX Corp. ScanMAX Kinase panel
Experimental: as §1, §2, §3

CSNK1D = molecular target: T5, CSNK1D (Homo sapiens, UniProt P48730); test: ScanMAX Kinase panel (DiscoverX); format: binding; details: read-out: % Cont @ 1 μM
T5 construct: purchased DiscoverX Corp. ScanMAX Kinase panel
T5 sequence (P48730 whole entry): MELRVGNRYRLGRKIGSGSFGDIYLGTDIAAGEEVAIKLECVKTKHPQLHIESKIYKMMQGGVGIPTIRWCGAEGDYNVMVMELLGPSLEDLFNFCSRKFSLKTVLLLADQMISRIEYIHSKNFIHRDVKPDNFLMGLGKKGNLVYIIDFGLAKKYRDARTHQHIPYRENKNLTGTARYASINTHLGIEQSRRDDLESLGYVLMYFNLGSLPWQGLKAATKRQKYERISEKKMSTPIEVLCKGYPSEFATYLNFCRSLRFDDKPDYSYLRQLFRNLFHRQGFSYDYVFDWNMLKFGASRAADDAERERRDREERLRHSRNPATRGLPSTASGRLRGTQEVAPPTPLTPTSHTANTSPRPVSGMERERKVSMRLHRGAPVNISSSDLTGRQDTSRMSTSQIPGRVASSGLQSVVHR
Experimental: as §1, §2, §3

DYRK1B = molecular target: T6, DYRK1B (Homo sapiens, UniProt Q9Y463); test: ScanMAX Kinase panel (DiscoverX); format: binding; details: read-out: % Cont @ 1 μM
T6 construct: purchased DiscoverX Corp. ScanMAX Kinase panel
T6 sequence (Q9Y463 whole entry): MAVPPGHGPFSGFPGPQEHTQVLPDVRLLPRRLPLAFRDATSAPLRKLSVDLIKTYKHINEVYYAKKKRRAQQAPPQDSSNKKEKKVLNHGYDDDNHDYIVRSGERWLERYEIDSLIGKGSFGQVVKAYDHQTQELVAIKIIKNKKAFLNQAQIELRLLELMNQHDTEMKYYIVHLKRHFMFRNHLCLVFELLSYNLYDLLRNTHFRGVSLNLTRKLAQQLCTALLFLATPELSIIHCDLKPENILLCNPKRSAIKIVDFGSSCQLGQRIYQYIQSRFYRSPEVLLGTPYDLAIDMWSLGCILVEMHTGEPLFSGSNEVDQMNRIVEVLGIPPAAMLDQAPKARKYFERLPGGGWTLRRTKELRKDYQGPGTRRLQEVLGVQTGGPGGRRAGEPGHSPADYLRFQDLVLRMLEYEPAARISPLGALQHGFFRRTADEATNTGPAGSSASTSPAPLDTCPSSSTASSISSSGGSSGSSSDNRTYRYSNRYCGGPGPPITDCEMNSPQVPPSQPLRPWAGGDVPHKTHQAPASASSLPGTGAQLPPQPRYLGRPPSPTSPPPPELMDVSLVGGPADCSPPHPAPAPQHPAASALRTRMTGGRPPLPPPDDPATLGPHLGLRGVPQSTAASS
Experimental: as §1, §2, §3

FLT3(ITD) = test: ScanMAX Kinase panel (DiscoverX); format: binding
Experimental: as §1, §2, §3

FLT3(ITD, D835V) = test: ScanMAX Kinase panel (DiscoverX); format: binding
Experimental: as §1, §2, §3

GAK = molecular target: T7, GAK (Homo sapiens, UniProt O14976); test: ScanMAX Kinase panel (DiscoverX); format: binding; details: read-out: % Cont @ 1 μM
T7 construct: purchased DiscoverX Corp. ScanMAX Kinase panel
T7 sequence (O14976 whole entry): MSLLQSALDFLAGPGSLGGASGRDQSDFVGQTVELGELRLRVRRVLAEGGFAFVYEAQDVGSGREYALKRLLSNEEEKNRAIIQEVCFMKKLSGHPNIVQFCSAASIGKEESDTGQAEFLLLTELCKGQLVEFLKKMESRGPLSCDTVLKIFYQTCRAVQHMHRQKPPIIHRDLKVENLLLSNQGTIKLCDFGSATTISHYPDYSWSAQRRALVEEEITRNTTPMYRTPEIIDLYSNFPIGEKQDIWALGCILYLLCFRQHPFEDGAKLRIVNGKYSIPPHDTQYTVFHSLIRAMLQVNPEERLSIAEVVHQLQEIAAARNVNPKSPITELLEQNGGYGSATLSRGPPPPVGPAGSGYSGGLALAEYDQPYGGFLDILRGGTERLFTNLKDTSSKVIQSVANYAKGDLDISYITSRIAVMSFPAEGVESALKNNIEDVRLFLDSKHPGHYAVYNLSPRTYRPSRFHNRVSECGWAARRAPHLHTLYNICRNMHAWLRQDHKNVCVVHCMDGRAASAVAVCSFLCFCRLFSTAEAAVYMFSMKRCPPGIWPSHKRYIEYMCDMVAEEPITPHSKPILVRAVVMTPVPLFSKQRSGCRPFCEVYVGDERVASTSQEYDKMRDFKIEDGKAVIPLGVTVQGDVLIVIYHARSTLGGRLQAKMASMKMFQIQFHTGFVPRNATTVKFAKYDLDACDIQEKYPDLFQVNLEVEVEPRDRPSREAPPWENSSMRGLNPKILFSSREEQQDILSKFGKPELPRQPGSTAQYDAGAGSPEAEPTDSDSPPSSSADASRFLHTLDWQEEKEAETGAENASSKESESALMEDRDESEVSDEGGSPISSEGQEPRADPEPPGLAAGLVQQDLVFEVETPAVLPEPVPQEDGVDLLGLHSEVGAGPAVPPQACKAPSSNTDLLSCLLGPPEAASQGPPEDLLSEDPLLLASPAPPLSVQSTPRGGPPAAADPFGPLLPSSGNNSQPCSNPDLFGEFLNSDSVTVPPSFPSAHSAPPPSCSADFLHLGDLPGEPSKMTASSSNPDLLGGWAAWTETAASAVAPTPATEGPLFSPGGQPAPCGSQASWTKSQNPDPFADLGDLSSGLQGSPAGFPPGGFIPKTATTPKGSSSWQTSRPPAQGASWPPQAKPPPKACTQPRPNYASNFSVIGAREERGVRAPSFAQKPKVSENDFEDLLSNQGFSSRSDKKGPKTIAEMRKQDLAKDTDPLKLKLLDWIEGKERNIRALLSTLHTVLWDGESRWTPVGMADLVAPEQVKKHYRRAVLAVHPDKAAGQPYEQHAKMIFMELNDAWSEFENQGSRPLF
Experimental: as §1, §2, §3

[1] = molecular target: T8, JAK2(JH1domain-catalytic) (Homo sapiens, UniProt O60674); test: ScanMAX Kinase panel (DiscoverX); format: binding
T8 construct: JAK2(JH1domain-; purchased DiscoverX Corp. (ScanMAX Kinase panel, commissioned)
T8 sequence (O60674 849-1124 limits assumed): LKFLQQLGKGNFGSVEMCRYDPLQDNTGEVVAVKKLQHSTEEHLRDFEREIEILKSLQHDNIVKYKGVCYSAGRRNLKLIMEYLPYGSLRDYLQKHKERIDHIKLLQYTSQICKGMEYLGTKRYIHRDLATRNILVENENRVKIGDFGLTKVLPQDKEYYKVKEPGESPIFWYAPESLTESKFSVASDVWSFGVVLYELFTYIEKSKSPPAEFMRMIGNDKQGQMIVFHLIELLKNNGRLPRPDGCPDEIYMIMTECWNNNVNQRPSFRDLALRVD
Experimental: as §1, §2, §3

KIT(V559D, V654A) = molecular target: T9, KIT(V559D, V654A) (Homo sapiens, UniProt P10721, V559D/V654A); test: ScanMAX Kinase panel (DiscoverX); format: binding; details: read-out: % Cont @ 1 μM
T9 construct: purchased DiscoverX Corp. ScanMAX Kinase panel
Experimental: as §1, §2, §3

MAP3K2 = molecular target: T10, MAP3K2 (Homo sapiens, UniProt Q9Y2U5); test: ScanMAX Kinase panel (DiscoverX); format: binding; details: read-out: % Cont @ 1 μM
T10 construct: purchased DiscoverX Corp. ScanMAX Kinase panel
Experimental: as §1, §2, §3

MEK4 = molecular target: T11, MEK4 (Homo sapiens, UniProt P45985); test: ScanMAX Kinase panel (DiscoverX); format: binding; details: read-out: % Cont @ 1 μM
T11 construct: purchased DiscoverX Corp. ScanMAX Kinase panel
T11 sequence (P45985 whole entry): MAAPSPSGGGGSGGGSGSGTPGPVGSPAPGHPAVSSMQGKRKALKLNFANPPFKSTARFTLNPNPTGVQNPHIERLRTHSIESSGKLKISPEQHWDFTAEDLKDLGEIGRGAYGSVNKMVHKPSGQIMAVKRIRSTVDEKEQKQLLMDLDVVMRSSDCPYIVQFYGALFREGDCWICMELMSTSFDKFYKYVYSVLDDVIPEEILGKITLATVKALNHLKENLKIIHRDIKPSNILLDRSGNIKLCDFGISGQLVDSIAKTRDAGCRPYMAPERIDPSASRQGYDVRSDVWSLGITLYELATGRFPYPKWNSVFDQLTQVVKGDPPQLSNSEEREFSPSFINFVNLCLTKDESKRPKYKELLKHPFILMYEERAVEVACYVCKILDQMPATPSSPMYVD
Experimental: as §1, §2, §3

PRKCE = molecular target: T12, PRKCE (Homo sapiens, UniProt Q02156); test: ScanMAX Kinase panel (DiscoverX); format: binding; details: read-out: % Cont @ 1 μM
T12 construct: purchased DiscoverX Corp. (ScanMAX Kinase panel, commissioned)
Experimental: as §1, §2, §3

RIOK1 = molecular target: T13, RIOK1 (Homo sapiens, UniProt Q9BRS2); test: ScanMAX Kinase panel (DiscoverX); format: binding; details: read-out: % Cont @ 1 μM
T13 construct: purchased DiscoverX Corp. ScanMAX Kinase panel
T13 sequence (Q9BRS2 whole entry): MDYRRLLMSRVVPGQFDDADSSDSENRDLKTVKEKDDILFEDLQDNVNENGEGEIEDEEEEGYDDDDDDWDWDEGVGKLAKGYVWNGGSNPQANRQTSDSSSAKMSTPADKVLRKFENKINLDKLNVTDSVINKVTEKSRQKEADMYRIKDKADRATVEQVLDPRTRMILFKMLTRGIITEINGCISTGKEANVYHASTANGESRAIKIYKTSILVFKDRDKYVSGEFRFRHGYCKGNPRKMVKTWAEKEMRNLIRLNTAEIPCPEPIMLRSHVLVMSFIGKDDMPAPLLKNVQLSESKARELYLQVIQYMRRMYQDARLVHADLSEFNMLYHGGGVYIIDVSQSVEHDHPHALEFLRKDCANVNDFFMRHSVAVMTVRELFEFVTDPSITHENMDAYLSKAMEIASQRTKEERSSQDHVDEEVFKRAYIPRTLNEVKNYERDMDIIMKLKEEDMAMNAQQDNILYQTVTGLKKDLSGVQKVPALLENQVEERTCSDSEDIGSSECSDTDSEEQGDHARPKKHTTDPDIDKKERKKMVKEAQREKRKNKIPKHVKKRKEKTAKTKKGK
Experimental: as §1, §2, §3

[2] = molecular target: T14, RSK2(Kin.Dom.1-N-terminal) (Homo sapiens, UniProt P51812); test: ScanMAX Kinase panel (DiscoverX); format: binding; details: read-out: % Cont @ 1 μM
T14 construct: RSK2(Kin.Dom.1-; purchased DiscoverX Corp. (ScanMAX Kinase panel, commissioned)
Experimental: as §1, §2, §3

[3] = molecular target: T15, RSK4(Kin.Dom.1-N-terminal) (Homo sapiens, UniProt Q9UK32); test: ScanMAX Kinase panel (DiscoverX); format: binding
T15 construct: RSK4(Kin.Dom.1); purchased DiscoverX Corp. ScanMAX Kinase panel
Experimental: as §1, §2, §3

SBK1 = molecular target: T16, SBK1 (Homo sapiens, UniProt Q52WX2); test: ScanMAX Kinase panel (DiscoverX); format: binding; details: read-out: % Cont @ 1 μM
T16 construct: purchased DiscoverX Corp. ScanMAX Kinase panel
Experimental: as §1, §2, §3

TRKB = molecular target: T17, TRKB (Homo sapiens, UniProt Q16620); test: ScanMAX Kinase panel (DiscoverX); format: binding; details: read-out: % Cont @ 1 μM
T17 construct: purchased DiscoverX Corp. ScanMAX Kinase panel
Experimental: as §1, §2, §3

[4] = molecular target: T18, TYK2(JH1domain-catalytic) (Homo sapiens, UniProt P29597); test: ScanMAX Kinase panel (DiscoverX); format: binding
T18 construct: TYK2(JH1domain-; purchased DiscoverX Corp. (ScanMAX Kinase panel, commissioned)
T18 sequence (P29597 897-1176 limits assumed): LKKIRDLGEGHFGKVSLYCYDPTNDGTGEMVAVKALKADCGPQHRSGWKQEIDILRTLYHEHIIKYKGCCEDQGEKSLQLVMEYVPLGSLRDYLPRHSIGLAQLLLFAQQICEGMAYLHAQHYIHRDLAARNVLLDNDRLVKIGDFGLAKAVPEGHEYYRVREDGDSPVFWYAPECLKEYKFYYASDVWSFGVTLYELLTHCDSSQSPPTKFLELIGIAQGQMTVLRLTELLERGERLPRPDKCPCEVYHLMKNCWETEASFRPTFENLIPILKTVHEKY
Experimental: as §1, §2, §3

[5] = molecular target: T19, TYK2(JH2domain-pseudokinase) (Homo sapiens, UniProt P29597); test: ScanMAX Kinase panel (DiscoverX); format: binding
T19 construct: TYK2(JH2domain-; purchased DiscoverX Corp. ScanMAX Kinase panel
Experimental: as §1, §2, §3

ULK1 = molecular target: T20, ULK1 (Homo sapiens, UniProt O75385); test: ScanMAX Kinase panel (DiscoverX); format: binding
T20 construct: purchased DiscoverX Corp. ScanMAX Kinase panel
Experimental: as §1, §2, §3

GI50 (A549): < 100 nM
remaining binding at 1 µM (AAK1): 4.4%
percent of control at 1 µM (CAMK2D): 12%
remaining binding at 1 µM (CAMKK1): 1.6%
remaining binding at 1 µM (CAMKK2): 2.2%
percent of control at 1 µM (CSNK1D): 19%
remaining binding at 1 µM (DYRK1B): 28%
% Cont @ 1 μM (FLT3(ITD)): 17%
% Cont @ 1 μM (FLT3(ITD, D835V)): 1.2%
remaining binding at 1 µM (GAK): 4.4%
% Cont @ 1 μM [1]: 0%
remaining binding at 1 µM (KIT(V559D, V654A)): 14%
remaining binding at 1 µM (MAP3K2): 13%
remaining binding at 1 µM (MEK4): 27%
percent of control binding at 1 µM (PRKCE): 1.4%
remaining binding at 1 µM (RIOK1): 27%
remaining binding at 1 µM [2]: 1.9%
% Cont @ 1 μM [3]: 3.7%
remaining binding at 1 µM (SBK1): 5.7%
remaining binding at 1 µM (TRKB): 3.9%
% Cont @ 1 μM [4]: 1.7%
% Cont @ 1 μM [5]: 7.2%
% Cont @ 1 μM (ULK1): 3.1%
Compound: COc1cc(N2CCCC2=O)ccc1Nc1cc(NC2CCCCC2)c2c(C#N)c[nH]c2n1 [Example 64, 4-(cyclohexylamino)-6-((2-methoxy-4-(2-oxopyrrolidin-1-yl)phenyl)amino)-1H-pyrrolo[2,3-b] pyridine-3-carbonitrile]
